Where a SMILES comes first, the peptide text is derived from it.
What was measured:
[1] = +4, 25, 37 and 45° C., 14 days, PBS pH 7.4, RDA with 20 μg
Description: (§3) Thermal stability was evaluated by diluting peptides to the concentration of 2 mg/ml in PBS buffer (pH 7.4) and incubating at different temperatures, such as +4° C., 25° C. (RT), 37° C. and 45° C., peptides stored at −20° C. were used as control. […] Peptides were also tested by diluting them at different pH values starting from pH 4 to 9. The effect of NaCl on the antimicrobial activity was tested by adding different concentrations (50, 100 and 200 mM) of NaCl to MH medium and the minimum inhibitory concentrations were tested against 4 ATCC bacterial strains.

[2] = test system: human erythrocytes; assay type: cell-based
Description: In hemolysis assays, the ability of peptides at 128 μg/ml concentration to lyse human erythrocytes to release hemoglobin was measured. The peptides described here preferably have low hemolytic activity (0.2 to 3.8% hemolysis) in mammal body. […] These peptides are useful as antimicrobial drugs as they show little or no side effects at concentrations needed to kill bacteria.
Minimum inhibition concentrations (MICs) were tested by microbroth dilution method and Chain 104, 105 and 109 inhibited the growth of Escherichia coli (ATCC 25922), Staphylococcus aureus (ATCC 25923), Klebsiella pneumoniae (ATCC 10031) and Pseudomonas aeruginosa (ATCC 27853) between 1-8 μg/ml respectively (Tables 3a, 3b and 3c). The membranolytic activities of the peptides were tested by measuring the release of hemoglobin from erythrocytes of fresh blood donated by voluntiers. Hemoglobin levels were determined spectrometrically by taking OD at 540 nm by following the protocol of Schmidtchen et al., 2011.

[3] = pH 4-9, RDA
Description: as §3

[4] = test system: gram positive and negative bacteria; experiment: MIC by micro broth dilution, summary over the strains tested; assay type: cell-based
Description: (§1) Minimum inhibition concentrations (MICs) were determined against Escherichia coli (ATCC 25922), Staphylococcus aureus (ATCC 25923), Klebsiella pneumoniae (ATCC 10031) and Pseudomonas aeruginosa (ATCC 27853). Also clinical strains of E. coli, K. pneumoniae, E. cloacae, P. aeruginosa, Serratia marcescens, Proteus mirabilis, S. pneumoniae, Acinetobacter baumannii, A. johnsonii and S. aureus were used for MICs assays. Additionally, clinical strains of yeast including Candida albicans, C. glabrata, C. parapsilosis and C. quillermondiae were used. The susceptibility of these microorganisms to Chain peptides were determined using micro broth dilution assay. Colonies of the respective microorganism from Muller Hinton (MH) agar plates incubated overnight were suspended in MH broth media and final concentration of microorganism was adjusted to 5.0×10^5 cfu/ml. An aliquot of 10 μl of each Chain peptide, or gentamicin, tetracycline as reference antibiotics were added in differing concentrations along with 90 μl of bacterial suspension to 96 well polypropylene plates and incubated at 37° C. for 20 to 24 hours. Concentrations of Chain peptides and reference antibiotics ranged from 0.125 to 128 μg/ml and the MICs were recorded as the lowest concentration with no visual growth of bacteria. Similarly, antifungal MICs were tested in Potato dextrose broth.

[5] = test system: S. aureus RN4220; assay type: cell-based, Staphylococcus aureus; settings: antibiotic sensitive strain S. aureus RN4220
Description: as §1
(§2) Peptides Chain 104, Chain 105, Chain 201, Chain 308, Chain 310 were tested against antibiotic-sensitive strains of S. aureus RN4220 and methicillin resistant strains of S. aureus COL (MRSA). Chain peptides comprising of either L- or D-form amino acids were tested against these bacteria, and the D-form peptides were found have better activity compared to L-form (Table 6). Synergistic activity of chain peptides along with Ertapenem (4 μg/ml) was tested to know whether it will influence the activity against MRSA strains. […] Chain 310 has the best antibacterial activity against the MRSA strains with a MIC of 0.06 & 0.03 μg/ml along with Ertapenem (4 μg/ml) for both forms of L and D-peptides (Table 6).

[6] = test system: S. aureus COL (MRSA); experiment: Synergistic activity with Ertapenem (4 μg/ml) against MRSA, MIC; assay type: cell-based, Staphylococcus aureus; settings: S. aureus COL, together with 4 μg/ml Ertapenem (synergistic activity)
Description: as §1, §2

| Structure (SMILES) | thermostability (antibacterial activity kept after incubation) [1] | side effects to humans as tested by hemolysis assay [2] | pH stability (zone of inhibition) [3] | activity against the four ATCC strains [4] | further results |
| --- | --- | --- | --- | --- | --- |
| CC[C@H](C)[C@H](NC(=O)[C@H](CCSC)NC(=O)[C@H](C)NC(=O)[C@H](CCCNC(=N)N)NC(=O)[C@H](Cc1c[nH]c2ccccc12)NC(=O)[C@H](CCCCN)NC(=O)[C@@H](N)CCCNC(=N)N)C(=O)N[C@@H](CCCNC(=N)N)C(=O)N[C@@H](CC(C)C)C(=O)N[C@@H](Cc1c[nH]cn1)C(=O)N[C@@H](C)C(=O)N[C@@H](CCCCN)C(=O)N[C@@H](CCCNC(=N)N)C(=O)N[C@@H](CC(C)C)C(=O)N[C@@H](CCCNC(=N)N)C(=O)N[C@@H](CCCCN)C(=O)O [Chain104] (H-RKWRAMIRLHAKRLRK-OH) | not hindered by pH or temperature even upto 45 °C for over 14 days | little side effects | not hindered by pH | – | – |
| CC[C@H](C)[C@H](NC(=O)[C@H](CCSC)NC(=O)[C@H](C)NC(=O)[C@H](CCCNC(=N)N)NC(=O)[C@H](Cc1c[nH]c2ccccc12)NC(=O)[C@H](CCCCN)NC(=O)[C@@H](N)CCCNC(=N)N)C(=O)N[C@@H](CCCNC(=N)N)C(=O)N[C@@H](CC(C)C)C(=O)N[C@@H](Cc1c[nH]cn1)C(=O)N[C@@H](C)C(=O)N[C@@H](CCCCN)C(=O)N[C@@H](Cc1c[nH]c2ccccc12)C(=O)N[C@@H](CC(C)C)C(=O)N[C@@H](CCCNC(=N)N)C(=O)N[C@@H](CCCCN)C(=O)O [Chain105] (H-RKWRAMIRLHAKWLRK-OH) | not hindered by pH or temperature even upto 45 °C for over 14 days | little side effects | not hindered by pH | – | – |
| CC(C)C[C@H](NC(=O)[C@H](CCCCN)NC(=O)[C@H](Cc1c[nH]c2ccccc12)NC(=O)[C@H](CCCCN)NC(=O)[C@H](C)NC(=O)[C@H](Cc1c[nH]cn1)NC(=O)[C@H](CC(C)C)NC(=O)[C@H](CCCNC(=N)N)NC(=O)[C@H](Cc1c[nH]c2ccccc12)NC(=O)[C@@H](N)Cc1c[nH]c2ccccc12)C(=O)N[C@@H](Cc1c[nH]c2ccccc12)C(=O)O [Chain109] (H-WWRLHAKWKLW-OH) | – | little side effects | – | – | – |
| CC[C@H](C)[C@H](NC(=O)[C@H](Cc1c[nH]c2ccccc12)NC(=O)[C@@H](N)CCCCN)C(=O)N[C@H](C(=O)N[C@@H](Cc1c[nH]c2ccccc12)C(=O)N[C@@H](CCCNC(=N)N)C(=O)N[C@@H](Cc1c[nH]c2ccccc12)C(=O)N[C@@H](CCCNC(=N)N)C(=O)N[C@@H](Cc1ccccc1)C(=O)N[C@@H](CCCCN)C(=O)N[C@@H](CCCNC(=N)N)C(=O)O)C(C)C [Chain201] (H-KWIVWRWRFKR-OH) | not hindered by pH or temperature even upto 45 °C for over 14 days | little side effects | not hindered by pH | – | – |
| CC[C@H](C)[C@H](NC(=O)[C@H](CC(C)C)NC(=O)[C@H](CCCNC(=N)N)NC(=O)[C@@H](N)CCCNC(=N)N)C(=O)N[C@@H](Cc1c[nH]c2ccccc12)C(=O)N[C@@H](CCCNC(=N)N)C(=O)N[C@@H](CCCNC(=N)N)C(=O)N[C@@H](Cc1ccccc1)C(=O)N[C@@H](CCCCN)C(=O)N[C@@H](Cc1c[nH]c2ccccc12)C(=O)N[C@@H](CC(C)C)C(=O)N[C@@H](CCCNC(=N)N)C(=O)O [Chain204] (H-RRLIWRRFKWLR-OH) | not hindered by pH or temperature even upto 45 °C for over 14 days | little side effects | not hindered by pH | – | – |
| CC[C@H](C)[C@H](N)C(=O)N[C@@H](Cc1c[nH]c2ccccc12)C(=O)N[C@@H](CCCCN)C(=O)N[C@@H](CCCNC(=N)N)C(=O)N[C@@H](Cc1ccccc1)C(=O)N[C@@H](CCCNC(=N)N)C(=O)N[C@@H](CC(C)C)C(=O)N[C@@H](Cc1ccccc1)C(=O)N[C@@H](CCCCN)C(=O)N[C@@H](CCCCN)C(=O)N[C@@H](Cc1c[nH]c2ccccc12)C(=O)O [Chain304] (H-IWKRFRLFKKW-OH; N-terminus and C-terminus assumed) | – | – | – | very active | – |
| CC(C)C[C@H](NC(=O)[C@H](Cc1c[nH]c2ccccc12)NC(=O)[C@H](Cc1ccccc1)NC(=O)[C@H](Cc1c[nH]c2ccccc12)NC(=O)[C@H](CCCCN)NC(=O)[C@H](CCCNC(=N)N)NC(=O)[C@@H](N)Cc1c[nH]c2ccccc12)C(=O)N[C@@H](Cc1ccccc1)C(=O)N[C@@H](CCCCN)C(=O)N[C@@H](CCCCN)C(=O)N[C@@H](CCCNC(=N)N)C(=O)O [Chain309] (H-WRKWFWLFKKR-OH; N-terminus and C-terminus assumed) | – | – | – | very active | – |
| CC(C)C[C@H](NC(=O)[C@H](Cc1c[nH]c2ccccc12)NC(=O)[C@H](Cc1ccccc1)NC(=O)[C@H](Cc1c[nH]c2ccccc12)NC(=O)[C@H](CCCCN)NC(=O)[C@H](CC(C)C)NC(=O)[C@@H](N)CCCCN)C(=O)N[C@@H](Cc1ccccc1)C(=O)N[C@@H](CCCCN)C(=O)N[C@@H](CCCCN)C(=O)N[C@@H](CCCNC(=N)N)C(=O)O [Chain311] (H-KLKWFWLFKKR-OH; N-terminus and C-terminus assumed) | – | – | – | very active | – |
| CC(C)C[C@H](NC(=O)[C@H](CC(C)C)NC(=O)[C@H](Cc1ccccc1)NC(=O)[C@H](Cc1c[nH]c2ccccc12)NC(=O)[C@H](CCCCN)NC(=O)[C@H](CC(C)C)NC(=O)[C@@H](N)CCCNC(=N)N)C(=O)N[C@@H](Cc1ccccc1)C(=O)N[C@@H](CCCNC(=N)N)C(=O)N[C@@H](CCCCN)C(=O)N[C@@H](CCCNC(=N)N)C(=O)O [Compound 308] (H-RLKWFLLFRKR-OH) | – | – | – | – | Minimum inhibitory concentration (MIC), S. aureus RN4220 [5]: >64 µg/mL; Minimum inhibitory concentration (MIC), S. aureus COL + 4 μg/ml Ertapenem [6]: 0.5 µg/mL |
| CC(C)C[C@H](NC(=O)[C@H](CCCCN)NC(=O)[C@H](CCCCN)NC(=O)[C@H](Cc1ccccc1)NC(=O)[C@H](CC(C)C)NC(=O)[C@H](Cc1c[nH]c2ccccc12)NC(=O)[C@H](CCCNC(=N)N)NC(=O)[C@H](Cc1c[nH]c2ccccc12)NC(=O)[C@H](CCCCN)NC(=O)[C@H](CCCNC(=N)N)NC(=O)[C@@H](N)CCCCN)C(=O)O [Compound 310] (H-KRKWRWLFKKL-OH) | – | – | – | – | Minimum inhibitory concentration (MIC), S. aureus RN4220 [5]: >64 µg/mL; Minimum inhibitory concentration (MIC), S. aureus COL + 4 μg/ml Ertapenem [6]: 0.06 µg/mL |

— patent publication US11096985B2, “Antimicrobial peptides, their variants and uses” (priority 2015, dated 2021)
